Measured values from patent publication US20050124690A1, “Pharmaceutical composition for the treatment of seborrhea containing 4-hydroxy-5-methoxy-4-[2-methyl-3(3-methyl-2-butenyl)-2-oxiranyl]-1-oxaspiro[2,5]octan-6-one” (priority 2002, published 2005).

Assays:
Pityrosporum ovale [1] = test: Minimum inhibition concentration (MIC) on Sabouraud's dextrose solid medium; type: cell-based; details: Malassezia furfur; solid medium with 1% corn oil and 0.1% Tween-80; 30° C., 3 to 5 days; naked eye
Method: For use in this test, P. ovale was cultured in Sabouraud's dextrose solid medium containing 1% corn oil and 0.1% Tween-80 at 30° C. for 2 days. After Sabouraud's dextrose solid medium containing 1% corn oil and 0.1% Tween-80 was aliquotted onto 6 cm plane plates, 4-hydroxy-5-methoxy-4-[2-methyl-3-(3-methyl-2-butenyl)-2-oxiranyl]-1-oxaspiro[2,5]octan-6-one was added in various concentration. When the medium was hardened, 150 μl of the cultured P. ovale was smeared onto the medium, followed by incubation at 30° C. for 3 to 5 days. Observing with naked eye, a minimum concentration capable of inhibiting the growth of the fungus was determined as MIC (Minimum Inhibition Concentration).
MIC versus P. ovale of 4-hydroxy-5-methoxy-4-[2-methyl-3-(3-methyl-2-butenyl)-2-oxiranyl]-1-oxaspiro[2,5]octan-6-one is given in Table 1, below.

[2] = test system: four-week old female rats; test: Acute dermal toxicity test; type: in vivo; details: 4000 mg/kg applied to about 10% of body surface area of shaved rats; observation for 15 days
Method: 4-hydroxy-5-methoxy-4-[2-methyl-3-(3-methyl-2-butenyl)-2-oxiranyl]-1-oxaspiro[2,5]octan-6-one, which was isolated from the culture filtrate and then purified, was tested for acute dermal toxicity using four-week old female rats, according to the standards provided by the Korean Food & Drug Administration. After the rats were shaved, 4000 mg/kg (body weight) of the compound was uniformly applied to about 10% of body surface area of rats.

Pityrosporum ovale [3] = test: Paper disc diffusion test for antifungal activity; type: cell-based; details: 45 μl of 0.1% acetone solution on paper disc; 30° C., 3 days
Method: A paper disc diffusion method was used to investigate antifungal activity against a fungus, Pityrosporum ovale. Sabouraud's dextrose solid medium containing 1% of corn oil and 0.1% Tween-80 was aliquotted onto 87 mm plane plates, and allowed to harden. In order to examine antifungal activity against P. ovale, […] of P. ovale cultured in Sabouraud's dextrose solid medium at 30° C. for 2 days was smeared onto the plates, and then dried. 45 μl of an acetone solution containing 0.1% of 4-hydroxy-5-methoxy-4-[2-methyl-3-(3-methyl-2-butenyl)-2-oxiranyl]-1-oxaspiro[2,5]octan-6-one was aliquated onto paper discs, and, after completely evaporating off the acetone, put onto the P. ovale-smeared medium. Plates not treated with 4-hydroxy-5-methoxy-4-[2-methyl-3-(3-methyl-2-butenyl)-2-oxiranyl]-1-oxaspiro[2,5]octan-6-one were used as controls. Thereafter, incubation was carried out at 30° C. for 3 days, and it was observed whether a growth inhibition area formed around the discs or not.

Q: Which MIC (Pityrosporum ovale [1]) does the source give for COC1C(=O)CCC2(CO2)C1(O)C1(C)OC1CC=C(C)C (stereo not drawn) [4-hydroxy-5-methoxy-4-[2-methyl-3-(3-methyl-2-butenyl)-2-oxiranyl]-1-oxaspiro[2,5]octan-6-one] here?
A: The MIC was less than 2 µg/mL.

Q: What about the “irritation, such as erythema or crusting” value [2] of the same compound?
A: Its value is “not detected irritation”.

Q: What about the “antifungal activity against P. ovale (growth inhibition area around the discs)” value (Pityrosporum ovale [3]) of the same compound?
A: The value was “found to have antifungal activity”.
